# Measurements as given in patent publication US9492437B2, “Otamixaban for treatment of elderly and renal impaired non-ST elevation myocardial infarction patients” (SANOFI, priority 2009, dated 2016).
# Test system: patients with Unstable angina/Non ST segment Elevation Myocardial infarction
# Assay: randomized, double-blind triple-dummy trial, efficacy (endpoint of the study: all-cause death and new myocardial infarction)
# Format: in vivo, human
# Text: The following results are based on a randomized, double-blind triple-dummy trial to compare otamixaban to Unfractionated Heparin+eptifibatide, in patients with Unstable angina/Non ST segment Elevation Myocardial infarction scheduled to undergo an early invasive strategy.
# Patient with non STE-segment elevation Acute Coronary Syndrome with the following symptoms: […]
# UFH: 60 IU/Kg as IV bolus ([…]) followed by an IV infusion of 12 U/Kg/h (max 1000 IU/h) to maintain a PTT at 1.5 to 2.0 times control and at the time of the PCI additional boluses needed if the ACT is not in the range of 200-250 seconds. NB: In order for the study to be blinded, all aPTTs and ACTs performed in order to adjust Drug B (UFH/placebo) dosing will be performed using an encrypted Hemochron Signature Elite machine (or as a back-up, a local device with a third-party unblinded healthcare professional).
# Eptifibatide: a single bolus of 180 mcg/kg followed by an infusion of 2 mcg/kg/min. In patients with CrCl<50 mL/min the infusion rate will be decreased to 1 mcg/kg/min.
# Primary endpoint: Adjudicated composite of all-cause death and new myocardial infarction (MI) within 7 days following randomization
# The events will be adjudicated by a blinded independent adjudication committee. Since the goal of treating acute ACS without persistent ST segment elevation is to prevent associated morbidity and mortality, death and myocardial infarction are considered to be the clinically most meaningful endpoints in therapeutic studies, whereas recurrent ischemia or refractory angina is of more uncertain clinical relevance (EMEA/CPCP/EWP/570/98; February 2008).
# The primary endpoint has been defined as the double clinical efficacy endpoint (all cause death and Myocardial Infarction based on centrally adjudicated data) that will be assessed at Day 7. Further estimation of this endpoint will be done at Day 30, Day 90 and Day 180 (end of the follow up) to check persistence of effect as recommended by the EMEA guideline (EMEA/CPCP/EWP/570/98; February 2008).
# Myocardial Infarction is considered to be a hard component of a combined efficacy endpoint for confirmatory clinical trials. The definition of Myocardial Infarction will be based on ACC/AHA, ESC and WHF consensus (J Am Coll Cardiol, 2007; 50:2173-2195; Eur Heart J, 2007, 28: 2525-2538): […]
# [1] = age 65 to 75 years, Ota. infusion 0.035 mg/Kg/h
# [2] = age 65 to 75 years, Ota. infusion 0.070 mg/Kg/h
# [3] = age 65 to 75 years, Ota. infusion 0.105 mg/Kg/h
# [4] = age 65 to 75 years, Ota. infusion 0.140 mg/Kg/h
# [5] = age 65 to 75 years, Ota. infusion 0.175 mg/Kg/h
# [6] = age <65 years, Ota. infusion 0.035 mg/Kg/h
# [7] = age <65 years, Ota. infusion 0.070 mg/Kg/h
# [8] = age <65 years, Ota. infusion 0.105 mg/Kg/h
# [9] = age <65 years, Ota. infusion 0.140 mg/Kg/h
# [10] = age <65 years, Ota. infusion 0.175 mg/Kg/h
# [11] = age older than 75 years, Ota. infusion 0.035 mg/Kg/h
# [12] = age older than 75 years, Ota. infusion 0.070 mg/Kg/h
# [13] = age older than 75 years, Ota. infusion 0.105 mg/Kg/h
# [14] = age older than 75 years, Ota. infusion 0.140 mg/Kg/h
# [15] = age older than 75 years, Ota. infusion 0.175 mg/Kg/h
# [16] = creatinine clearance 30 to 50 ml/min, Ota. infusion 0.070 mg/Kg/h
# [17] = creatinine clearance 30 to 50 ml/min, Ota. infusion 0.105 mg/Kg/h
# [18] = creatinine clearance 30 to 50 ml/min, Ota. infusion 0.140 mg/Kg/h
# [19] = creatinine clearance 30 to 50 ml/min, Ota. infusion 0.175 mg/Kg/h
# [20] = creatinine clearance 50 to 80 ml/min, Ota. infusion 0.035 mg/Kg/h
# [21] = creatinine clearance 50 to 80 ml/min, Ota. infusion 0.070 mg/Kg/h
# [22] = creatinine clearance 50 to 80 ml/min, Ota. infusion 0.105 mg/Kg/h
# [23] = creatinine clearance 50 to 80 ml/min, Ota. infusion 0.140 mg/Kg/h
# [24] = creatinine clearance 50 to 80 ml/min, Ota. infusion 0.175 mg/Kg/h
# [25] = creatinine clearance <30 ml/min, Ota. infusion 0.140 mg/Kg/h
# [26] = creatinine clearance more than 80 ml/min, Ota. infusion 0.035 mg/Kg/h
# [27] = creatinine clearance more than 80 ml/min, Ota. infusion 0.070 mg/Kg/h
# [28] = creatinine clearance more than 80 ml/min, Ota. infusion 0.105 mg/Kg/h
# [29] = creatinine clearance more than 80 ml/min, Ota. infusion 0.140 mg/Kg/h
# [30] = creatinine clearance more than 80 ml/min, Ota. infusion 0.175 mg/Kg/h
# [31] = dose arms from 0.105 to 0.175 mg/Kg/h (dose arm 3 to 5)
smiles,measurement,setting,value
"COC(=O)C(Cc1cccc(C(=N)N)c1)[C@@H](C)NC(=O)c1ccc(-c2cc[n+]([O-])cc2)cc1 (mixture of isomers) [Otamixaban, (2R,3R)-2-(3-Carbamimidoyl-benzyl)-3-[4-(1-oxy-pyridin-4-yl)benzoylamino]-butyric acid methyl ester]",patients who showed the endpoint of the study / patients in the group,[1],2/33
same,patients with endpoint in comparison with the whole number of patients in the group,[1],(6.1%)
same,patients who showed the endpoint of the study / patients in the group,[2],11/186
same,patients with endpoint in comparison with the whole number of patients in the group,[2],(5.9%)
same,patients who showed the endpoint of the study / patients in the group,[3],11/170
same,patients with endpoint in comparison with the whole number of patients in the group,[3],(6.5%)
same,patients who showed the endpoint of the study / patients in the group,[4],9/182
same,patients with endpoint in comparison with the whole number of patients in the group,[4],(4.9%)
same,patients who showed the endpoint of the study / patients in the group,[5],7/164
same,patients with endpoint in comparison with the whole number of patients in the group,[5],(4.3%)
same,patients who showed the endpoint of the study / patients in the group,[6],5/74
same,patients with endpoint in comparison with the whole number of patients in the group,[6],(6.8%)
same,patients who showed the endpoint of the study / patients in the group,[7],16/394
same,patients with endpoint in comparison with the whole number of patients in the group,[7],(4.1%)
same,patients who showed the endpoint of the study / patients in the group,[8],8/394
same,patients with endpoint in comparison with the whole number of patients in the group,[8],(2.0%)
same,patients who showed the endpoint of the study / patients in the group,[9],9/383
same,patients with endpoint in comparison with the whole number of patients in the group,[9],(2.3%)
same,patients who showed the endpoint of the study / patients in the group,[10],16/401
same,patients with endpoint in comparison with the whole number of patients in the group,[10],(4.0%)
same,patients who showed the endpoint of the study / patients in the group,[11],2/18
same,patients with endpoint in comparison with the whole number of patients in the group,[11],(11.1%)
same,patients who showed the endpoint of the study / patients in the group,[12],4/96
same,patients with endpoint in comparison with the whole number of patients in the group,[12],(4.2%)
same,patients who showed the endpoint of the study / patients in the group,[13],6/98
same,patients with endpoint in comparison with the whole number of patients in the group,[13],(6.1%)
same,patients who showed the endpoint of the study / patients in the group,[14],6/93
same,patients with endpoint in comparison with the whole number of patients in the group,[14],(6.5%)
same,patients who showed the endpoint of the study / patients in the group,[15],6/106
same,patients with endpoint in comparison with the whole number of patients in the group,[15],(5.7%)
same,patients who showed the endpoint of the study / patients in the group,"creatinine clearance 30 to 50 ml/min, Ota. infusion 0.035 mg/Kg/h",0/7
same,patients who showed the endpoint of the study / patients in the group,[16],5/54
same,patients with endpoint in comparison with the whole number of patients in the group,[16],(9.3%)
same,patients who showed the endpoint of the study / patients in the group,[17],8/46
same,patients with endpoint in comparison with the whole number of patients in the group,[17],(17.4%)
same,patients who showed the endpoint of the study / patients in the group,[18],4/46
same,patients with endpoint in comparison with the whole number of patients in the group,[18],(8.7%)
same,patients who showed the endpoint of the study / patients in the group,[19],3/48
same,patients with endpoint in comparison with the whole number of patients in the group,[19],(6.3%)
same,patients who showed the endpoint of the study / patients in the group,[20],5/29
same,patients with endpoint in comparison with the whole number of patients in the group,[20],(17.2%)
same,patients who showed the endpoint of the study / patients in the group,[21],9/188
same,patients with endpoint in comparison with the whole number of patients in the group,[21],(4.8%)
same,patients who showed the endpoint of the study / patients in the group,[22],5/189
same,patients with endpoint in comparison with the whole number of patients in the group,[22],(2.6%)
same,patients who showed the endpoint of the study / patients in the group,[23],6/192
same,patients with endpoint in comparison with the whole number of patients in the group,[23],(3.1%)
same,patients who showed the endpoint of the study / patients in the group,[24],8/178
same,patients with endpoint in comparison with the whole number of patients in the group,[24],(4.5%)
same,patients who showed the endpoint of the study / patients in the group,"creatinine clearance <30 ml/min, Ota. infusion 0.035 mg/Kg/h",0/2
same,patients who showed the endpoint of the study / patients in the group,"creatinine clearance <30 ml/min, Ota. infusion 0.070 mg/Kg/h",0/2
same,patients who showed the endpoint of the study / patients in the group,"creatinine clearance <30 ml/min, Ota. infusion 0.105 mg/Kg/h",0/0
same,patients who showed the endpoint of the study / patients in the group,[25],3/4
same,patients with endpoint in comparison with the whole number of patients in the group,[25],75.0%
same,patients who showed the endpoint of the study / patients in the group,"creatinine clearance <30 ml/min, Ota. infusion 0.175 mg/Kg/h",0/3
same,patients who showed the endpoint of the study / patients in the group,[26],3/79
same,patients with endpoint in comparison with the whole number of patients in the group,[26],(3.8%)
same,patients who showed the endpoint of the study / patients in the group,[27],14/382
same,patients with endpoint in comparison with the whole number of patients in the group,[27],(3.7%)
same,patients who showed the endpoint of the study / patients in the group,[28],10/378
same,patients with endpoint in comparison with the whole number of patients in the group,[28],(2.6%)
same,patients who showed the endpoint of the study / patients in the group,[29],9/372
same,patients with endpoint in comparison with the whole number of patients in the group,[29],(2.4%)
same,patients who showed the endpoint of the study / patients in the group,[30],14/392
same,patients with endpoint in comparison with the whole number of patients in the group,[30],(3.6%)
same,"subgroup analysis of clinical results (age, gender, creatinine clearance, body weight, management of the acute coronary syndrome)","demographic subgroups, baseline characteristics, invasive or medical management",consistency of the clinical results
same,anticoagulation based on rates of bailout and thrombotic complications,dose arms 0.035 mg/Kg/h and 0.070 mg/Kg/h (dose arms 1 and 2),inadequate anticoagulation
same,effect on urgent revascularization or need for bailout,[31],no demonstrable effect
same,rates of primary endpoint lower than UFH+Eptifibatide,[31],31-41%
